From patent US10810329B2, “In silico design of peptides equilibrated in a lipid bilayer with partition free energies indicating probability of antimicrobial activity” (priority 2015, dated 2020)
Values after ≈ are worked out from the molar mass of the structure shown. Peptide text beside a SMILES is read from it.

How the values were obtained:
[1] = test system: E. coli ATCC 25922; type: cell-based, Escherichia coli; settings: for Antimicrobial activity (MIC) Experimental values: ATCC 25922; for MIC in MH medium: ATCC 25922, 16 h
Procedure: (§1) MIC: Minimal Inhibitory Concentration of AMPs in MH Medium Against E. coli ATCC 25922 Minimal inhibitory concentration (MIC) represents for the lowest concentration of peptide at which the AMP can still kill 90% of the bacteria. All MIC tests for WLK peptide series SEQ ID NO:1-13 were measured against Escherichia coli strain (ATCC 25922) in triplicate. Peptide concentration was determined by UV spectrophotometer (Ultrospec 1100 pro from Amersham Biosciences) at 280 nm with proper extinction coefficient. (Gill S. C. & Von Hippel P. H., Analytical biochemistry 1989, 182(2), 319-326). All of the samples were prepared from a stock solution containing peptides of concentrations 5, 2.5, 1.25, 0.625, 0.313, 0.156 and 0.078 mg/ml. Bacteria culture in the middle of logarithmic growth at a concentration of 5×10^5 colony-formation unit (CFU) and protein solution at the aforementioned concentrations were uniformly mixed in a 96-well culture plate (each well contains 1 microliter protein solution and 99 microliter of bacteria culture). After growing the culture at 37° C. for 16 hours, how bacterial growth was inhibited was measured by Thermo Max (Molecular Devices) at the wavelength of 600 nm. The MIC values were determined by triplicates of the above experiments.

[2] = test system: Escherichia coli strain (ATCC 25922); type: cell-based
Procedure: as §1, with “Minimal” for “MIC: Minimal Inhibitory Concentration of AMPs in MH Medium Against E. coli ATCC 25922 Minimal”

[3] = test system: human red blood cells; type: cell-based
Procedure: Hemolysis Activity Test Hemolytic activity was determined by measuring hemolysis of human red blood cells. Fresh red blood cells and PBS buffer solution (pH 7.4) was mixed uniformly and centrifugated by relative centrigugal force (RCF) 800 g rpm for 10 minutes, washed and then diluted by the PBS buffer solution to 10% concentration by volume (v/v). All the tested peptides were prepared with different concentrations (800, 400, 200, 100, 50, 25, 12.5, 6.25, 3.13, 1.56 μg/ml) and then mixed with PBS buffer in 1:1 ratio (100 μL:100 μL) by volume. In 1:1 ratio (v/v), the red blood cell solution was mixed with a PBS buffer, with or without 2% Triton X-100, respectively as the positive and negative controls. All samples to be tested were settled at 37° C. environment for 1 hour. Next, the specimen was centrifuged under RCF 800 g for 10 minutes and the absorbance of its supernatant was measured at a wavelength of 450 nm. The hemolytic activity would be measured according to the following formula: “% hemolysis=[Asample−APBS]/[ATritonX100−APBS]”

CC(C)C[C@H](NC(=O)[C@H](Cc1c[nH]c2ccccc12)NC(=O)[C@H](CCCCN)NC(=O)[C@H](CCCCN)NC(=O)[C@H](CCCCN)NC(=O)[C@H](CCCCN)NC(=O)[C@H](CCCCN)NC(=O)[C@H](CC(C)C)NC(=O)[C@H](Cc1c[nH]c2ccccc12)NC(=O)[C@H](CCCCN)NC(=O)[C@H](CC(C)C)NC(=O)[C@H](Cc1c[nH]c2ccccc12)NC(=O)[C@@H](N)CCCCN)C(=O)O [SEQ ID NO. 5, KWLKWLKKKKKWL] (H-KWLKWLKKKKKWL-OH; N-terminus and C-terminus assumed)
Antimicrobial activity (MIC) Experimental values [1]: 12.5 µg/mL | MIC in MH medium [1]: 12.5 µg/mL (≈ 6.89 µM) | MIC in LYM medium, NaCl 50 [2]: 3.13 µg/mL (≈ 1.73 µM) | MIC in LYM medium, NaCl 100 [2]: 12.5 µg/mL (≈ 6.89 µM) | MIC in LYM medium, NaCl 200 [2]: 25 µg/mL (≈ 13.8 µM) | MIC in LYM medium, NaCl 300 [2]: 50 µg/mL (≈ 27.6 µM) | MIC in LYM medium, control [2]: 3.13 µg/mL (≈ 1.73 µM)

CC(C)C[C@H](NC(=O)[C@H](Cc1c[nH]c2ccccc12)NC(=O)[C@H](CCCCN)NC(=O)[C@H](CCCCN)NC(=O)[C@H](CCCCN)NC(=O)[C@H](CCCCN)NC(=O)[C@H](CCCCN)NC(=O)[C@H](CC(C)C)NC(=O)[C@H](Cc1c[nH]c2ccccc12)NC(=O)[C@H](CCCCN)NC(=O)[C@H](CC(C)C)NC(=O)[C@@H](N)Cc1c[nH]c2ccccc12)C(=O)N[C@@H](CCCCN)C(=O)O [SEQ ID NO. 6, WLKWLKKKKKWLK] (H-WLKWLKKKKKWLK-OH; N-terminus and C-terminus assumed)
Antimicrobial activity (MIC) Experimental values [1]: 6.25 µg/mL | MIC in MH medium [1]: 6.25 µg/mL (≈ 3.45 µM) | MIC in LYM medium, NaCl 50 [2]: 3.13 µg/mL (≈ 1.73 µM) | MIC in LYM medium, NaCl 100 [2]: 6.25 µg/mL (≈ 3.45 µM) | MIC in LYM medium, NaCl 200 [2]: 12.5 µg/mL (≈ 6.89 µM) | MIC in LYM medium, NaCl 300 [2]: 25 µg/mL (≈ 13.8 µM) | MIC in LYM medium, control [2]: 1.56 µg/mL (≈ 0.86 µM)

CC(C)C[C@H](NC(=O)[C@H](Cc1c[nH]c2ccccc12)NC(=O)[C@H](CCCCN)NC(=O)[C@H](CCCCN)NC(=O)[C@H](CCCCN)NC(=O)[C@H](CCCCN)NC(=O)[C@H](CCCCN)NC(=O)[C@H](CC(C)C)NC(=O)[C@H](Cc1c[nH]c2ccccc12)NC(=O)[C@H](CCCCN)NC(=O)[C@@H](N)CC(C)C)C(=O)N[C@@H](CCCCN)C(=O)N[C@@H](Cc1c[nH]c2ccccc12)C(=O)O [SEQ ID NO. 7, LKWLKKKKKWLKW] (H-LKWLKKKKKWLKW-OH; N-terminus and C-terminus assumed)
Antimicrobial activity (MIC) Experimental values [1]: 12.5 µg/mL | MIC in MH medium [1]: 12.5 µg/mL (≈ 6.89 µM) | MIC in LYM medium, NaCl 50 [2]: 3.13 µg/mL (≈ 1.73 µM) | MIC in LYM medium, NaCl 100 [2]: 6.25 µg/mL (≈ 3.45 µM) | MIC in LYM medium, NaCl 200 [2]: 12.5 µg/mL (≈ 6.89 µM) | MIC in LYM medium, NaCl 300 [2]: 50 µg/mL (≈ 27.6 µM) | MIC in LYM medium, control [2]: 3.13 µg/mL (≈ 1.73 µM)

CC(C)C[C@H](NC(=O)[C@H](Cc1c[nH]c2ccccc12)NC(=O)[C@H](CCCCN)NC(=O)[C@H](CC(C)C)NC(=O)[C@H](Cc1c[nH]c2ccccc12)NC(=O)[C@H](CCCCN)NC(=O)[C@H](CCCCN)NC(=O)[C@H](CCCCN)NC(=O)[C@H](CCCCN)NC(=O)[C@H](CCCCN)NC(=O)[C@H](CC(C)C)NC(=O)[C@H](Cc1c[nH]c2ccccc12)NC(=O)[C@@H](N)CCCCN)C(=O)O [SEQ ID NO. 8, KWLKKKKKWLKWL] (H-KWLKKKKKWLKWL-OH; N-terminus and C-terminus assumed)
Antimicrobial activity (MIC) Experimental values [1]: 6.25 µg/mL | MIC in MH medium [1]: 6.25 µg/mL (≈ 3.45 µM) | MIC in LYM medium, NaCl 50 [2]: 3.13 µg/mL (≈ 1.73 µM) | MIC in LYM medium, NaCl 100 [2]: 3.13 µg/mL (≈ 1.73 µM) | MIC in LYM medium, NaCl 200 [2]: 6.25 µg/mL (≈ 3.45 µM) | MIC in LYM medium, NaCl 300 [2]: 12.5 µg/mL (≈ 6.89 µM) | MIC in LYM medium, control [2]: 3.13 µg/mL (≈ 1.73 µM)

CC(C)C[C@H](NC(=O)[C@H](Cc1c[nH]c2ccccc12)NC(=O)[C@H](CCCCN)NC(=O)[C@H](CC(C)C)NC(=O)[C@H](Cc1c[nH]c2ccccc12)NC(=O)[C@H](CCCCN)NC(=O)[C@H](CCCCN)NC(=O)[C@H](CCCCN)NC(=O)[C@H](CCCCN)NC(=O)[C@H](CCCCN)NC(=O)[C@H](CC(C)C)NC(=O)[C@@H](N)Cc1c[nH]c2ccccc12)C(=O)N[C@@H](CCCCN)C(=O)O [SEQ ID NO. 9, WLKKKKKWLKWLK] (H-WLKKKKKWLKWLK-OH; N-terminus and C-terminus assumed)
Antimicrobial activity (MIC) Experimental values [1]: 6.25 µg/mL | MIC in MH medium [1]: 6.25 µg/mL (≈ 3.45 µM) | MIC in LYM medium, NaCl 50 [2]: 3.13 µg/mL (≈ 1.73 µM) | MIC in LYM medium, NaCl 100 [2]: 3.13 µg/mL (≈ 1.73 µM) | MIC in LYM medium, NaCl 200 [2]: 12.5 µg/mL (≈ 6.89 µM) | MIC in LYM medium, NaCl 300 [2]: 50 µg/mL (≈ 27.6 µM) | MIC in LYM medium, control [2]: 3.13 µg/mL (≈ 1.73 µM)

CC(C)C[C@H](NC(=O)[C@H](Cc1c[nH]c2ccccc12)NC(=O)[C@H](CCCCN)NC(=O)[C@H](CC(C)C)NC(=O)[C@H](Cc1c[nH]c2ccccc12)NC(=O)[C@H](CCCCN)NC(=O)[C@H](CCCCN)NC(=O)[C@H](CCCCN)NC(=O)[C@H](CCCCN)NC(=O)[C@H](CCCCN)NC(=O)[C@@H](N)CC(C)C)C(=O)N[C@@H](CCCCN)C(=O)N[C@@H](Cc1c[nH]c2ccccc12)C(=O)O [SEQ ID NO. 10, LKKKKKWLKWLKW] (H-LKKKKKWLKWLKW-OH; N-terminus and C-terminus assumed)
Antimicrobial activity (MIC) Experimental values [1]: 6.25 µg/mL | MIC in MH medium [1]: 6.25 µg/mL (≈ 3.45 µM) | MIC in LYM medium, NaCl 50 [2]: 3.13 µg/mL (≈ 1.73 µM) | MIC in LYM medium, NaCl 100 [2]: 3.13 µg/mL (≈ 1.73 µM) | MIC in LYM medium, NaCl 200 [2]: 6.25 µg/mL (≈ 3.45 µM) | MIC in LYM medium, NaCl 300 [2]: 25 µg/mL (≈ 13.8 µM) | MIC in LYM medium, control [2]: 3.13 µg/mL (≈ 1.73 µM)

CC(C)C[C@H](NC(=O)[C@H](Cc1c[nH]c2ccccc12)NC(=O)[C@H](CCCCN)NC(=O)[C@H](CC(C)C)NC(=O)[C@H](Cc1c[nH]c2ccccc12)NC(=O)[C@H](CCCCN)NC(=O)[C@H](CC(C)C)NC(=O)[C@H](Cc1c[nH]c2ccccc12)NC(=O)[C@H](CCCCN)NC(=O)[C@H](CCCCN)NC(=O)[C@H](CCCCN)NC(=O)[C@H](CCCCN)NC(=O)[C@@H](N)CCCCN)C(=O)O [SEQ ID NO. 11, KKKKKWLKWLKWL] (H-KKKKKWLKWLKWL-OH; N-terminus and C-terminus assumed)
Antimicrobial activity (MIC) Experimental values [1]: 1.56 µg/mL | MIC in MH medium [1]: 1.56 µg/mL (≈ 0.86 µM) | MIC in LYM medium, NaCl 50 [2]: 1.56 µg/mL (≈ 0.86 µM) | MIC in LYM medium, NaCl 100 [2]: 1.56 µg/mL (≈ 0.86 µM) | MIC in LYM medium, NaCl 200 [2]: 1.56 µg/mL (≈ 0.86 µM) | MIC in LYM medium, NaCl 300 [2]: 3.13 µg/mL (≈ 1.73 µM) | MIC in LYM medium, control [2]: 1.56 µg/mL (≈ 0.86 µM)

CC(C)C[C@H](NC(=O)[C@H](Cc1c[nH]c2ccccc12)NC(=O)[C@H](CCCCN)NC(=O)[C@H](CC(C)C)NC(=O)[C@H](Cc1c[nH]c2ccccc12)NC(=O)[C@H](CCCCN)NC(=O)[C@H](CC(C)C)NC(=O)[C@H](Cc1c[nH]c2ccccc12)NC(=O)[C@H](CCCCN)NC(=O)[C@H](CCCCN)NC(=O)[C@H](CCCCN)NC(=O)[C@@H](N)CCCCN)C(=O)N[C@@H](CCCCN)C(=O)O [SEQ ID NO. 12, KKKKWLKWLKWLK] (H-KKKKWLKWLKWLK-OH)
Antimicrobial activity (MIC) Experimental values [1]: 1.56 µg/mL | MIC in MH medium [1]: 1.56 µg/mL (≈ 0.86 µM) | hemolytic activity on human erythrocytes [3]: lower hemolytic activity | MIC in LYM medium, NaCl 50 [2]: 1.56 µg/mL (≈ 0.86 µM) | MIC in LYM medium, NaCl 100 [2]: 3.13 µg/mL (≈ 1.73 µM) | MIC in LYM medium, NaCl 200 [2]: 3.13 µg/mL (≈ 1.73 µM) | MIC in LYM medium, NaCl 300 [2]: 3.13 µg/mL (≈ 1.73 µM) | MIC in LYM medium, control [2]: 1.56 µg/mL (≈ 0.86 µM)

CC(C)C[C@H](NC(=O)[C@H](Cc1c[nH]c2ccccc12)NC(=O)[C@H](CCCCN)NC(=O)[C@H](CC(C)C)NC(=O)[C@H](Cc1c[nH]c2ccccc12)NC(=O)[C@H](CCCCN)NC(=O)[C@H](CC(C)C)NC(=O)[C@H](Cc1c[nH]c2ccccc12)NC(=O)[C@H](CCCCN)NC(=O)[C@H](CCCCN)NC(=O)[C@@H](N)CCCCN)C(=O)N[C@@H](CCCCN)C(=O)N[C@@H](CCCCN)C(=O)O [SEQ ID NO. 13, KKKWLKWLKWLKK] (H-KKKWLKWLKWLKK-OH; N-terminus and C-terminus assumed)
Antimicrobial activity (MIC) Experimental values [1]: 1.56 µg/mL | MIC in MH medium [1]: 1.56 µg/mL (≈ 0.86 µM) | MIC in LYM medium, NaCl 50 [2]: 3.13 µg/mL (≈ 1.73 µM) | MIC in LYM medium, NaCl 100 [2]: 1.56 µg/mL (≈ 0.86 µM) | MIC in LYM medium, NaCl 200 [2]: 3.13 µg/mL (≈ 1.73 µM) | MIC in LYM medium, NaCl 300 [2]: 12.5 µg/mL (≈ 6.89 µM) | MIC in LYM medium, control [2]: 1.56 µg/mL (≈ 0.86 µM)
